These results are taken from patent US8476315B2, “N-hydroxy C29-amide derivatives of oleandrane” (Onepharm Research & Development GmbH, priority 2009, dated 2013).

The test system of assay [1] is murine retinal ganglion cells. As to conditions: cited from earlier work.
The test system of a further assay is CK-2. The note with it: 30 μM GA; cited from earlier work.
A further assay concerns the target T1, 11β-HSD2 (Homo sapiens, UniProt P80365).
T1 construct: expressed in transfected cells
T1 sequence (P80365 1-405): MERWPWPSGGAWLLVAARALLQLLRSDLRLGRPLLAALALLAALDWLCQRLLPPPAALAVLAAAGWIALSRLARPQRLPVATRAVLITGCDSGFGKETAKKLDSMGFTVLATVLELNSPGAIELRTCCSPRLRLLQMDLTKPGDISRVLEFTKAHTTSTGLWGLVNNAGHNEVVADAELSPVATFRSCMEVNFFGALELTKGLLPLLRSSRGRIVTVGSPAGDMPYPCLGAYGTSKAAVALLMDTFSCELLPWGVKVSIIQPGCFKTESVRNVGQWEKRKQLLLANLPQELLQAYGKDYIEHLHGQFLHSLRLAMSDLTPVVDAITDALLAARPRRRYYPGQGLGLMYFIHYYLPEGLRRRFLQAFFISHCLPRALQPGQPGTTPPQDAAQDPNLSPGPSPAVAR
Briefly: 11β-HSD2 activity in lysates of stably transfected HEK-293 cells. In kind it is biochemical. As to conditions: cell lysate. The protocol: (§1) Cell culture media were purchased from Invitrogen, Basel, Switzerland. [1,2,6,7-3H]-cortisol was from Amersham Pharmacia, Dubendorf, Switzerland. [1,2,6,7-3H]-cortisone was produced by incubating 1 mCi of [1,2,6,7-3H]-cortisol with 1 mg of lysate of HEK-293 cells expressing 11β-HSD2 in the presence of 1 mM NAD+. Incubation was for 16 h at 37° C. […] The product was run for a second chromatographic purification step on the same TLC system. […] All other chemicals were from Fluka AG, Buchs, Switzerland and were of the highest grade available.
HEK-293 cells were transfected with the plasmid for expression of carboxy-terminally FLAG-epitope tagged 11β-HSD1 or 11β-HSD2, respectively, that were described previously. […] Non-resistant cells were removed by replacing the cell culture medium every third day for 3 weeks. […]
(§2) Similarly, reductase activity was measured in a reaction containing NADPH, 30 nCi of [1,2,6,7-3H]-cortisone and unlabeled cortisone, whereby final concentrations were 400 μM NADPH and 10 nM cortisone. […] Activities were determined measuring the conversion of either radiolabeled cortisone or cortisol for 5-20 min using substrate concentrations in the range between 10 nM and 10 μM. 11β-HSD1 activities were measured immediately after cell disruption. […] Results are expressed as mean±S.D. and consist of at least three independent measurements.

In a further assay the target is T2, 11β-HSD1 (Homo sapiens, UniProt P28845).
T2 construct: expressed in transfected cells
Briefly: 11β-HSD1 activity in lysates of stably transfected HEK-293 cells. Format: biochemical. The note with it: cell lysate. The protocol: as §1
HEK-293 cells were transfected with the plasmid for expression of carboxy-terminally FLAG-epitope tagged 11β-HSD1 or 11β-HSD2, respectively, that were described previously. […] Non-resistant cells were removed by replacing the cell culture medium every third day for 3 weeks.
For determination of oxidative activity of 11β-HSD enzymes, cells were lysed by sonication and the cell lysate was diluted 1:12 in buffer TS2 (at 4° C.).
as §2

In the next assay the test system is TNFα. Briefly: TNFα expression. Format: cell-based. The text has this:
Accordingly, in a further embodiment of the present invention, there is included a method of treating inflammatory diseases comprising administering a TNFα-downregulating effective amount of a compound of the invention to a subject in need thereof. A person skilled in the art would be able to identify TNFα-downregulating compounds of the invention by contacting one or more cells with a compound of the invention and assaying for the presence of one TNFα and comparing the levels of TNFα in the one or more cells with that of controls. Such methods are known in the art and are described in the examples herein below.

For a further assay, the system named is PKC and CK-I. The note with it: GL (100 μM); cited from earlier work.

Bounds are passed on as bounds.

T2 sequence (P28845 whole entry): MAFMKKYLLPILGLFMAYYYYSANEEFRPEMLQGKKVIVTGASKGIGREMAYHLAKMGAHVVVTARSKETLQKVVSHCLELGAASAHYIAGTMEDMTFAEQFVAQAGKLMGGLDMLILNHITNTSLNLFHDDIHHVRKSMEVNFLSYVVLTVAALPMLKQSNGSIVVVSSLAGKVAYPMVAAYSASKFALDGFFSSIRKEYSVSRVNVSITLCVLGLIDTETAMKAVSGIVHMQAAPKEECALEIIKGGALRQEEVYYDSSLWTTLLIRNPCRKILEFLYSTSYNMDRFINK

Consider `CC1(C)[C@@H](O)CC[C@]2(C)[C@H]3C(=O)C=C4[C@@H]5C[C@@](C)(C(=O)O)CC[C@]5(C)CC[C@@]4(C)[C@]3(C)CC[C@@H]12` [GA, Glycyrrhetinic acid], for which the postsynaptic light response in assay [1] is on record as 30 % of control. Further, the “phosphorylation of C3α by CK-2” value in the assay with CK-2 was “completely inhibited”.
`CONC(=O)[C@@]1(C)CC[C@]2(C)CC[C@]3(C)C(=CC(=O)C4[C@@]5(C)CC[C@H](O)C(C)(C)C5CC[C@]43C)C2C1` (stereo partly drawn) [Compound 16, (3S,18R,20S)-3-Hydroxy-N-methoxy-11-oxo-olean-12-en-29-amide]: the figures for the IC50 on 11β-HSD2 and against 11β-HSD1 were 2130 nM and 929 nM, respectively.
`CC1(C)C2CC[C@]3(C)C(C(=O)C=C4C5C[C@@](C)(C(=O)NO)CC[C@]5(C)CC[C@]43C)[C@@]2(C)CC[C@@H]1O` (stereo partly drawn) [Compound 2, (3S,18R,20S)-3-Hydroxy-N-hydroxy-11-oxo-olean-12-en-29-amide]: on 11β-HSD1 (Concentration 1000 nmol/L, read-out: Reduction of 11β-HSD1 Activity (%) (average ± standard deviation)), the inhibition at 1 µM was 46.7 ± 13.8%. Also, the IC50 against 11β-HSD1 stood at 1160 nM.
For the molecule `CON[C@H]1CC[C@@]2(C)C(CC[C@]3(C)C2C(=O)C=C2C4C[C@@](C)(C(=O)N(C)O)CC[C@]4(C)CC[C@]23C)C1(C)C` (stereo partly drawn) [Compound 10, (3S,18R,20S)-N-Hydroxy-N-methyl-3-methoxamino-11-dioxo-olean-12-en-29-amide], the half-inhibitory concentration (IC50) is 547 nM against 11β-HSD2 and greater than 40000 nM against 11β-HSD1.
With `CC(=O)O[C@H]1CC[C@@]2(C)C(CC[C@]3(C)C2C(=O)C=C2C4C[C@@](C)(C(=O)NO)CC[C@]4(C)CC[C@]23C)C1(C)C` (stereo partly drawn) [Compound 1, (3S,18R,20S)-3-(Acetyloxy)-N-hydroxy-11-oxo-olean-12-en-29-amide], the TNFα expression result in the assay with TNFα is given as “inhibit”.
In the case of `CC1(C)[C@@H](O[C@H]2O[C@H](C(=O)O)[C@@H](O)[C@H](O)[C@H]2O[C@@H]2O[C@H](C(=O)O)[C@@H](O)[C@H](O)[C@H]2O)CC[C@]2(C)[C@H]3C(=O)C=C4[C@@H]5C[C@@](C)(C(=O)O)CC[C@]5(C)CC[C@@]4(C)[C@]3(C)CC[C@@H]12` [GL, glycyrrhizin], the “phosphorylation of HMGB1/2 by PKC and CK-I” value in the assay with PKC and CK-I is recorded as “completely inhibits”.
